SMILES strings stand for the structures.

The values below come from patent publication US20260207621A1 (Vividion Therapeutics, Inc., priority 2022, published 2026).

In one test the test system is Nrf2. Nature of the test: Nrf2 antagonism assay: ARE luciferase reporter in KYSE-70 cells. The format is cell-based. Particulars: Homo sapiens, KYSE-70, KYSE-70 cells, positive Imax corresponds to Nrf2 antagonism, read-out: KYSE70 Cellular ARE Luciferase Imax (%). An excerpt:
NRF2 binds to a promoter region, antioxidant response element (ARE), to initiate expression of multiple genes. ARE luciferase reporter assays are used to test whether a ligand can activate or repress the expression of target genes using luciferase as a reporter gene.
KYSE-70 is an esophageal squamous cell carcinoma cell line with a Nrf2 mutation at amino acid position W24C. This mutation lowers the affinity between the E3 ligase that includes KEAP1 and Nrf2, resulting in a state in which the synthesis rate of new Nrf2 is faster than the E3's degradation rate of Nrf2, resulting in a “Nrf2 high” state. In KYSE-70 cells, genes are inserted directly after the ARE that trigger the expression of luciferase. Without a NRF2 antagonist in this modified KYSE70 cell line which has an inherently “NRF2 high state”, luciferase is expressed, and a signal is observed.
Nrf2 antagonists bind at C151 of KEAP1 and stabilize the E3 which results in an increased degradation rate of Nrf2. Increased degradation of Nrf2 results in less expression of luciferase, and therefore a less intense signal.
An IC50 is generated from the dose-response curve and an Imax. A positive Imax corresponds to Nrf2 antagonism. Imax >90% correlates with in vivo tumor grown inhibition. Compounds with Imax >50% were included in this description.
Background: In a reporter assay the amount or activity of a reporter protein is the signal.

A further test concerns the target T1, KEAP1 C151 (Homo sapiens, UniProt Q14145).
T1 construct: treating 500 μg of cell lysate generated from MDA-MB-468 breast cancer cells with DMSO or compound; endogenous in cells; host or cells: MDA-MB-468 breast cancer cell lysate
Nature of the test: Nrf2 TMT measurement: in vitro TE50 for KEAP1 C151 (IA-DTB competition, targeted TMT mass spectrometry) in MDA-MB-468 cell lysate. Format: binding. Particulars: in vitro target engagement of KEAP1 C151, targeted TMT, read-out: KEAP1_C151 TE50. The protocol: In vitro TE50 values for KEAP_C151 were obtained by treating 500 μg of cell lysate generated from MDA-MB-468 breast cancer cells with DMSO or compound for 1 hour at room temperature followed by the addition of 200 μM IA-DTB (in DMSO) for one hour at room temperature. Samples were then precipitated by the addition of 8× ice cold acetonitrile and incubated at −80° C. for two hours. Protein was then pelleted by centrifugation (4,200 RPM, 45 min, 4° C.). The pelleted material was resuspended in 9M Urea, 50 mM ammonium bicarbonate and proteins were reduced and alkylated by the addition of DTT and iodoacetamide (10 and 30 mM, respectively). Following reduction and alkylation, samples were exchanged into 2M urea (Zeba spin desalting plates, Thermo Fisher) and digested with Trypsin. IA-DTB labeled peptides were isolated with streptavidin agarose resin. Enriched peptides were eluted by the addition of 50% acetonitrile (ACN) 0.1% Formic Acid (FA) and dried in a SpeedVac vacuum concentrator.
Dried peptides were resuspended in 0.2 M EPPS pH 8.5 and treated with 6.5 μL of 11-plex tandem mass tag (TMT) (8.3 μg/μL in dry ACN) for 2 hours at room temperature. Reactions were quenched by the addition of 6.5 μL of 5% Hydroxylamine. Samples were then combined and desalted on a Biotage Evolute express ABN plate (600-0010-PX01).
Targeted TMT. Targeted TMT measurements were collected using an Orbitrap LumosTribrid Mass Spectrometer (Thermo Scientific) coupled to an UltiMate 3000 Series Rapid Separation LC system and autosampler (Thermo Scientific Dionex). Peptides were eluted onto a custom C18 capillary analytical column (75-μm inner diameter fused silica, packed with Acclaim PepMap C18 resin (Thermo Scientific)) using an Acclaim PepMap 100 (Thermo 164535) loading column, and separated at a flow rate of 1.0 μl min−1. Data were acquired using a specific MS3-based TMT method targeting the peptide containing KEAP1 C151 (C(+324.2)[…], +3 charge state) where MS2 peptide fragmentation is triggered upon detection of the peptide precursor ion. Subsequent MS3 analysis was then performed using pre-selected peptide fragment ions that were isolated for fragmentation using synchronous precursor selection. RAW files were converted to MZXML format and searched with the SEQUEST algorithm using the MassPike software package. TMT quantitation was performed with a filter requiring at least ten summed signal-to-noise for control channels. Quantified signals were used for dose response curve-fitting and IC50 calculation using R's drc package.

T1 sequence (Q14145 whole entry): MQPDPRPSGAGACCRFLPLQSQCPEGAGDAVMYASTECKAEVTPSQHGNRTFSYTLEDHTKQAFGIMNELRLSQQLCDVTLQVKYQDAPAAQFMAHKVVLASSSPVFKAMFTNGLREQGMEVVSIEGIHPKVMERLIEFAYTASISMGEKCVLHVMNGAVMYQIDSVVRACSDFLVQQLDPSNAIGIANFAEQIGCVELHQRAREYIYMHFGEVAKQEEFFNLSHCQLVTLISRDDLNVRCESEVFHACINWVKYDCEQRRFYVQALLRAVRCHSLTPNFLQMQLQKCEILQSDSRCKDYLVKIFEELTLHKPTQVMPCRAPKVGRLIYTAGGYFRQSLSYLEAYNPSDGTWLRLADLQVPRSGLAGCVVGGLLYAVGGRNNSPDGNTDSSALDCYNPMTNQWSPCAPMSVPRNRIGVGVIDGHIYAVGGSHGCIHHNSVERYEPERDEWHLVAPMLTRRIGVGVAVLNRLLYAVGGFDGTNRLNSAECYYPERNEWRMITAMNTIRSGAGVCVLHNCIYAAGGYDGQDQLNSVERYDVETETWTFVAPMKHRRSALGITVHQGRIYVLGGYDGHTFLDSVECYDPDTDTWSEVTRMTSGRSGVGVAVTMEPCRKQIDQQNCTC

As to `C=CC(=O)N1CCOCC1c1cc(Cl)cc(-c2ccccc2)c1` (racemic) [Compound 1, 1-(3-(5-chloro-[1,1′-biphenyl]-3-yl)morpholino)prop-2-en-1-one], the Emax with Nrf2 came to 56%. Besides, the IC50 on KEAP1 C151 was found to be 410 nM.
For `C=CC(=O)N1CCOCC12COc1c(-c3ccccc3)cc(Cl)cc12` (racemic) [Compound 7, 1-(5-chloro-7-phenyl-2H-spiro[benzofuran-3,3′-morpholin]-4′-yl)prop-2-en-1-one], in that order: 55% and 5260 nM.
For `C=CC(=O)N1CCS(=O)(=O)CC1c1cc(Cl)cc(C2CCOCC2)c1` (racemic) [Compound 28, 1-(3-(3-chloro-5-(tetrahydro-2H-pyran-4-yl)phenyl)-1,1-dioxidothiomorpholino)prop-2-en-1-one], in that order: 50% and 150 nM.
The like results for `C=CC(=O)N1CCS(=O)(=O)CC1c1cc(Cl)cc(-c2ccn(C)c(=O)c2)c1` (racemic) [Compound 29, 4-(3-(4-acryloyl-1,1-dioxidothiomorpholin-3-yl)-5-chlorophenyl)-1-methylpyridin-2(1H)-one] were, in that order, 62% and 330 nM.
Regarding `C=CC(=O)N1CCCOCC1c1cc(Cl)cc(-c2ncnc(N)n2)c1` (racemic) [Compound 162, 1-(3-(3-(4-amino-1,3,5-triazin-2-yl)-5-chlorophenyl)-1,4-oxazepan-4-yl)prop-2-en-1-one], the Emax with Nrf2 was found to be 80%. In addition, the IC50 at KEAP1 C151 was found to be 600 nM.
On to `C=CC(=O)N1CCOC[C@H]1c1cc(Cl)cc(-c2cccc(NC(C)=O)c2)c1` (single isomer, unassigned) [Compound 2], for which the Emax in the test with Nrf2 is 52%. In addition, the IC50 at KEAP1 C151 was 10.7 nM.
On to `C=CC(=O)N1CCOCC1c1cc(Cl)cc(C2CCOCC2)c1` (single isomer, unassigned) [Compound 5, 1-(3-(3-chloro-5-(tetrahydro-2H-pyran-4-yl)phenyl)morpholino)prop-2-en-1-one], for which, in the test with Nrf2, the Emax stood at 70%. Besides, at KEAP1 C151, the IC50 worked out at 130 nM.
Take `C=CC(=O)N1CCN(S(C)(=O)=O)CC1c1cc(Cl)cc(-c2ccnc(NC(C)=O)c2)c1` (single isomer, unassigned) [Compound 6, N-(4-(3-(1-acryloyl-4-(methylsulfonyl)piperazin-2-yl)-5-chlorophenyl)pyridin-2-yl)acetamide]: the Emax in the test on Nrf2 was 58%. For the same molecule, at KEAP1 C151, the IC50 came out at 2.6 nM.
With `C=CC(=O)N1CCOCC1c1cc(C#N)cc(-c2ncccn2)c1` (single isomer, unassigned) [Compound 8, 3-(4-acryloylmorpholin-3-yl)-5-(pyrimidin-2-yl)benzonitrile], the Emax in the test on Nrf2 was found to be 53%. Besides, the IC50 at KEAP1 C151 came out at 55 nM.
For `C=CC(=O)N1CCOC[C@H]1c1cc(Cl)cc(-c2nnn(C)n2)c1` (single isomer, unassigned) [Compound 9], in that order: 76% and 60.5 nM.
Turning to `C=CC(=O)N1CCOC[C@H]1c1cc(Cl)cc(-c2ncccn2)c1` (single isomer, unassigned) [Compound 10], in the test on Nrf2, the Emax is 79%. The IC50 on KEAP1 C151 came to 22.8 nM.
With `C=CC(=O)N1CCOCC1c1cc(Cl)cc(-c2cc[nH]c(=O)c2)c1` (single isomer, unassigned) [Compound 11, 4-(3-(4-acryloylmorpholin-3-yl)-5-chlorophenyl)pyridin-2(1H)-one], the Emax in the test with Nrf2 is 79%. In addition, at KEAP1 C151, the IC50 was 67 nM.
The like results for `C=CC(=O)N1CCOC[C@H]1c1cc(Cl)cc(-c2ccnc(N3CCCC3=O)c2)c1` (single isomer, unassigned) [Compound 12] were, in that order, 68% and 3.9 nM.
For the molecule `C=CC(=O)N1CCOC[C@H]1c1cc(Cl)cc(-c2ccn(C)c(=O)c2)c1` (single isomer, unassigned) [Compound 13], the Emax in the test on Nrf2 was found to be 72%. In addition, at KEAP1 C151, the IC50 is 50 nM.
`C=CC(=O)N1CCOCC1c1cc(Cl)cc(-c2ccnnc2)c1` (single isomer, unassigned) [Compound 14, 1-(3-(3-chloro-5-(pyridazin-4-yl)phenyl)morpholino)prop-2-en-1-one]: the Emax in the test on Nrf2 came to 55%. Further, the IC50 on KEAP1 C151 was determined as 144 nM.
For `C=CC(=O)N1CCN(S(C)(=O)=O)C[C@H]1c1cc(Cl)cc(-c2cc[nH]c(=O)c2)c1` (single isomer, unassigned) [Compound 15], in that order: 57% and 22 nM.
The like results for `C=CC(=O)N1CCN(S(C)(=O)=O)C[C@H]1c1cc(Cl)cc(-c2ccnc(N3CCCC3=O)c2)c1` (single isomer, unassigned) [Compound 16] were, in that order, 62% and 2.2 nM.
Take `C=CC(=O)N1CCN(C(C)=O)C[C@H]1c1cc(Cl)cc(-c2ncccn2)c1` (single isomer, unassigned) [Compound 17]: the Emax with Nrf2 was 65%. Also, the IC50 on KEAP1 C151 was 96.3 nM.
Regarding `C=CC(=O)N1CCN(C(=O)C2CC2)C[C@H]1c1cc(Cl)cc(-c2ccc(F)c(C(N)=O)c2)c1` (single isomer, unassigned) [Compound 195], in the test on Nrf2, the Emax came out at 90%.
On the same count and under the same terms, under `C=CC(=O)N1CCN(C(=O)C2CC2)C[C@H]1c1cc(Cl)cc(-c2nccc(N)n2)c1` (single isomer, unassigned) [Compound 196] stands 90%.
Turning to `C=CC(=O)N1CCN(C(=O)C2CC2)C[C@H]1c1cc(Cl)cc(-c2cc(N)ncn2)c1` (single isomer, unassigned) [Compound 197], the Emax with Nrf2 was 87%.
The same measure, in the same setting: then `C=CC(=O)N1CCOC[C@H]1c1cc(Cl)cc(-c2nc(N)nc(Cl)n2)c1` (single isomer, unassigned) [Compound 199], with 92%; and `C=CC(=O)N1CCN(C(=O)C2CC2)C[C@H]1c1cc(Cl)cc(-c2ncc(N)cn2)c1` (single isomer, unassigned) [Compound 200], with 91%; and `C=CC(=O)N1[C@H](c2cc(Cl)nc(-c3cc(N)ncn3)c2)COC[C@H]1C(F)F` (single isomer, unassigned) [Compound 202], with 94%.
Still for that read-out and setting: under `[2H]c1nc(N)nc(-c2cc(Cl)cc([C@@H]3COCCN3C(=O)C=C)c2)n1` (single isomer, unassigned) [Compound 208] stands 94%.
In the case of `C=CC(=O)N1CCOC[C@H]1c1cc(Cl)cc(-c2ncnc(NCCO)n2)c1` (single isomer, unassigned) [Compound 219], the Emax with Nrf2 is 81%.
Consider `Nc1ncnc(-c2cc(Cl)cc([C@@H]3COCCN3C(=O)C=C3CC3)c2)n1` (single isomer, unassigned) [Compound 293], for which the Emax in the test with Nrf2 was determined as 54%.
As to `C=C(F)C(=O)N1CCOC[C@H]1c1cc(Cl)cc(-c2ncnc(N)n2)c1` (single isomer, unassigned) [Compound 297], in the test with Nrf2, the Emax is 58%.
Turning to `C=CC(=O)N1C[C@@H](F)COC[C@H]1c1cc(Cl)nc(-c2cc(N)ncn2)c1` [Compound 198, 1-((3R,6R)-3-(2-(6-aminopyrimidin-4-yl)-6-chloropyridin-4-yl)-6-fluoro-1,4-oxazepan-4-yl)prop-2-en-1-one], the Emax in the test with Nrf2 came to 93%.
As for `C=CC(=O)N1[C@H](c2cc(Cl)nc(-c3cc(C)ncn3)c2)COC[C@H]1C(F)F` [Compound 201, 1-((3R,5S)-3-(2-chloro-6-(6-methylpyrimidin-4-yl)pyridin-4-y1)-5-(difluoromethyl)morpholino)prop-2-en-1-one], in the test on Nrf2, the Emax was found to be 93%.
